Reference: the supplement of paper PMC13380429

Columns and labels:
Conditions in all cases: 72 h
U2OS [1] = assay: relative viability EC50 (midpoint between 100% and the lowest measured viability); higher = less toxic
Calu-3 [2] = assay: as above
HepG2 [3] = assay: as above
U2OS [4] = assay: drug sensitivity score (DSS) for viability; higher = more toxic; extreme values may be limits of the assay
Calu-3 [5] = assay: as above
HepG2 [6] = assay: as above
U2OS [7] = assay: cell viability relative to DMSO; higher = less toxic
Calu-3 [8] = assay: as above
HepG2 [9] = assay: as above
Caco-2 [10] = assay: relative viability EC50 (midpoint between 100% and the lowest measured viability); higher = less toxic
Vero E6 [11] = assay: as above
Caco-2 [12] = assay: drug sensitivity score (DSS) for viability; higher = more toxic; extreme values may be limits of the assay
Vero E6 [13] = assay: as above
Caco-2 [14] = assay: cell viability relative to DMSO; higher = less toxic
Vero E6 [15] = assay: as above

| Structure (SMILES) | relative viability EC50 (U2OS [1]) | relative viability EC50 (Calu-3 [2]) | relative viability EC50 (HepG2 [3]) | drug sensitivity score (U2OS [4]) | drug sensitivity score (Calu-3 [5]) | drug sensitivity score (HepG2 [6]) | cell viability (U2OS [7]; 1 nM) | cell viability (U2OS [7]; 10 nM) | cell viability (U2OS [7]; 100 nM) | cell viability (U2OS [7]; 1000 nM) | cell viability (U2OS [7]; 10000 nM) | cell viability (Calu-3 [8]; 1 nM) | cell viability (Calu-3 [8]; 10 nM) | cell viability (Calu-3 [8]; 100 nM) | cell viability (Calu-3 [8]; 1000 nM) | cell viability (Calu-3 [8]; 10000 nM) | cell viability (HepG2 [9]; 1 nM) | cell viability (HepG2 [9]; 10 nM) | cell viability (HepG2 [9]; 100 nM) | cell viability (HepG2 [9]; 1000 nM) | cell viability (HepG2 [9]; 10000 nM) | relative viability EC50 (Caco-2 [10]) | relative viability EC50 (Vero E6 [11]) | drug sensitivity score (Caco-2 [12]) | drug sensitivity score (Vero E6 [13]) | cell viability (Caco-2 [14]; 1 nM) | cell viability (Caco-2 [14]; 10 nM) | cell viability (Caco-2 [14]; 100 nM) | cell viability (Caco-2 [14]; 1000 nM) | cell viability (Caco-2 [14]; 10000 nM) | cell viability (Vero E6 [15]; 1 nM) | cell viability (Vero E6 [15]; 10 nM) | cell viability (Vero E6 [15]; 100 nM) | cell viability (Vero E6 [15]; 1000 nM) | cell viability (Vero E6 [15]; 10000 nM) |
| --- | --- | --- | --- | --- | --- | --- | --- | --- | --- | --- | --- | --- | --- | --- | --- | --- | --- | --- | --- | --- | --- | --- | --- | --- | --- | --- | --- | --- | --- | --- | --- | --- | --- | --- | --- |
| C[C@]1(c2nc3c(C(N)=O)cccc3[nH]2)CCCN1 [veliparib] | > 10 µM | > 10 µM | > 10 µM | 0 | 0 | 0 | 96.7% | 104% | 96.8% | 106% | 96.6% | 105% | 100% | 100% | 111% | 92.1% | 105% | 107% | 106% | 96.1% | 101% | – | – | – | – | – | – | – | – | – | – | – | – | – | – |
| Cc1cc(CCCOc2c(C)cc(-c3noc(C(F)(F)F)n3)cc2C)on1 [pleconaril] | – | > 10 µM | > 10 µM | – | 0 | 0 | – | – | – | – | – | 97.8% | 93.7% | 96% | 90.3% | 93.9% | 98.6% | 94.2% | 102% | 103% | 112% | > 10 µM | > 10 µM | 0 | 0 | 96.6% | 102% | 103% | 102% | 105% | 94.2% | 96.8% | 91.6% | 92.5% | 98% |
| CCCN(CCC)C(=O)C(CCC(=O)O)NC(=O)c1ccccc1 (stereo unspecified) [proglumide] | – | > 10 µM | > 10 µM | – | 0 | 0 | – | – | – | – | – | 100% | 113% | 104% | 89.9% | 96.2% | 98% | 104% | 107% | 109% | 106% | > 10 µM | > 10 µM | 0 | 0 | 102% | 105% | 95.7% | 104% | 102% | 104% | 100% | 98.8% | 97.8% | 107% |
| CC(=O)OCC(=O)[C@@]1(O)CC[C@H]2[C@@H]3CCC4=CC(=O)C=C[C@]4(C)[C@@]3(Cl)[C@@H](Cl)C[C@@]21C [dichlorisone-acetate] | – | > 10 µM | > 10 µM | – | 0 | 0 | – | – | – | – | – | 98.9% | 107% | 100% | 89.2% | 102% | 96.4% | 94.5% | 99% | 99.3% | 92.4% | > 10 µM | > 10 µM | 0 | 0 | 105% | 103% | 99.7% | 105% | 110% | 105% | 102% | 102% | 98.7% | 105% |
| O=C(Cc1ccc(-c2ccccc2)cc1)Nc1ccccn1 [difenpiramide] | – | > 10 µM | 3.89 µM | – | 0 | 2.4 | – | – | – | – | – | 107% | 99.3% | 96.9% | 96.4% | 102% | 117% | 118% | 109% | 110% | 43.6% | > 10 µM | > 10 µM | 0.2 | 0 | 98.4% | 107% | 100% | 107% | 82.9% | 106% | 111% | 104% | 103% | 98.5% |
| C#C[C@]1(O)CC[C@H]2[C@@H]3CCc4cc(OC)ccc4[C@H]3CC[C@@]21C [mestranol] | > 10 µM | > 10 µM | > 10 µM | 0 | 0 | 0 | 102% | 98.6% | 96.7% | 101% | 96.1% | 89.6% | 102% | 108% | 104% | 103% | 113% | 104% | 107% | 103% | 97.5% | > 10 µM | – | 0.4 | – | 96.8% | 106% | 102% | 100% | 82.7% | – | – | – | – | – |
| CC(C)CC(=O)Nc1n[nH]c2c1CN(C(=O)C1CCN(C)CC1)C2(C)C | 1.32 µM | 1.89 µM | 0.95 µM | 8.5 | 5.2 | 10.9 | 101% | 102% | 94% | 68.7% | 15% | 98.7% | 90.7% | 93.6% | 89.6% | 37.6% | 103% | 115% | 102% | 51.9% | 9.7% | – | > 10 µM | 5.8 | 0.2 | 99.1% | 98.9% | 85.6% | 76.9% | 51% | 103% | 106% | 104% | 100% | 85.7% |
| O=C(c1ccc(F)cc1)C1CCN(CCn2c(=S)[nH]c3ccccc3c2=O)CC1 [altanserin] | > 10 µM | > 10 µM | > 10 µM | 0 | 0 | 1.7 | 98.2% | 96.7% | 103% | 96.5% | 97.1% | 104% | 103% | 112% | 97.3% | 111% | 108% | 107% | 88.2% | 96% | 86.4% | > 10 µM | – | 0.2 | – | 103% | 82.7% | 94.2% | 89% | 90.6% | – | – | – | – | – |
| O=C1CCc2ccc(OCCCCN3CCN(c4cccc(Cl)c4Cl)CC3)cc2N1 [aripiprazole] | > 10 µM | > 10 µM | > 10 µM | 0 | 1.1 | 0.8 | 102% | 103% | 103% | 103% | 89.2% | 98.5% | 98.5% | 104% | 91.9% | 83.3% | 109% | 105% | 98.6% | 100% | 77.5% | – | > 10 µM | 2.3 | 0 | 112% | 78% | 94.6% | 90.5% | 70.8% | 94.1% | 97.6% | 93.7% | 96.3% | 88.2% |
| c1ccc(CN(CC2=NCCN2)c2ccccc2)cc1 [antazoline] | > 10 µM | > 10 µM | > 10 µM | 0 | 0 | 0 | 96.5% | 101% | 93.9% | 95% | 90.6% | 90.2% | 105% | 98.3% | 104% | 91.7% | 102% | 91.8% | 90.6% | 96.7% | 103% | – | > 10 µM | 3.4 | 0 | 103% | 84.4% | 92.1% | 84% | 70.7% | 99.1% | 102% | 105% | 90.4% | 91.7% |
| COc1cc2ncc(-c3ccccc3)nc2cc1OC [tyrphostin-AG-1296] | – | > 10 µM | > 10 µM | – | 0 | 0 | – | – | – | – | – | 102% | 86.2% | 91.3% | 84.8% | 100% | 107% | 108% | 98.1% | 106% | 95.8% | > 10 µM | > 10 µM | 0 | 0 | 92.7% | 104% | 91.6% | 96.2% | 95.4% | 95.4% | 99.8% | 96.3% | 98% | 99.5% |
| O=c1cc(-c2ccccc2)oc2cc(O)c(O)c(O)c12 [baicalein] | – | > 10 µM | > 10 µM | 2.6 | 0 | 0 | 99.9% | 97.5% | 101% | 95.2% | 62.6% | 105% | 101% | 103% | 103% | 87.5% | 92.1% | 102% | 90.8% | 101% | 104% | > 10 µM | > 10 µM | 0.9 | 0 | 96.2% | 99.7% | 96.9% | 99.2% | 77.1% | 91.4% | 98.3% | 93.1% | 97% | 104% |
| O=C(O)c1cc(N2N=C(C(F)(F)F)/C(=C/c3ccc(-c4ccccc4)o3)C2=O)ccc1Cl [EN460] | > 10 µM | > 10 µM | > 10 µM | 0 | 0 | 0 | 101% | 102% | 97.9% | 98.6% | 100% | 102% | 89.9% | 97.6% | 92.6% | 100% | 106% | 97.9% | 101% | 105% | 92.1% | > 10 µM | – | 0 | – | 101% | 95.2% | 101% | 97.8% | 96.3% | – | – | – | – | – |
